Common to all, as to type: biochemical
In one assay the target is T1, purified human plasmin (Homo sapiens, UniProt P00747).
T1 construct: purified human plasmin (2 nM, Stago); purchased Stago
In words: Inhibition of purified human plasmin, chromogenic substrate S2403 (selectivity). The settings on record: plasmin 2 nM, substrate <Glu-Phe-Lys-pNA 0.37 mM, read at 405 nm; read-out: IC50 with respect to plasmin. As to the method: In order to assess in vitro the inhibitory activity of products of the invention on purified human activated protein C (Diagnostica Stago), the chromogenic substrate pyroGlu-Pro-Arg-pNA (0.39 mM, S2366, Chromogenix) was added to a given amount of activated protein C (2 nM) previously incubated with or without the inhibitor under test (20° C., 30 minutes).
In order to assess in vitro the selectivity with respect to thrombin and plasmin, the same protocol was applied to purified human thrombin (0.7 nM, Sigma) and to purified human plasmin (2 nM, Stago), using as substrates purified human fibrinogen (6 μM, Enzyme Research Laboratories) and the paracitroanilide peptide <Glu-Phe-Lys-pNA (0.37 mM, S2403, Chromogenix), respectively.
The inhibitors, enzymes and substrates are diluted in the same buffer ([…] phosphate buffer pH 7.4 containing 0.12M sodium chloride and 0.05% bovine serum albumin in the case of thrombin and 50 mM TRIS-HCl buffer pH 7.4 containing 0.12M sodium chloride, 3 mM calcium chloride and 0.05% bovine serum albumin in the case of activated protein C and plasmin) and then dispensed in a volume of 50 μl onto a polystyrene microplate.
The paranitroanilide liberated or the fibrin formed by the action of the serine protease is measured spectrophotometrically at 405 nm after reacting for from 10 to 30 minutes at 20° C.

The next assay deals with purified human thrombin (Homo sapiens, UniProt P00734). Put plainly: Inhibition of purified human thrombin, fibrinogen substrate (selectivity). Particulars: thrombin 0.7 nM, substrate human fibrinogen 6 μM, fibrin formed read at 405 nm; read-out: IC50 with respect to thrombin.
The target of assay [1] is T2, purified human activated protein C (Homo sapiens, UniProt P04070).
T2 construct: purchased Diagnostica Stago
In words: Inhibition of purified human activated protein C, chromogenic substrate S2366. Particulars: activated protein C 2 nM, inhibitor preincubated 20° C., 30 minutes, substrate pyroGlu-Pro-Arg-pNA 0.39 mM, read at 405 nm; read-out: IC50 with respect to activated protein C.
Method: (§1) The inhibitors, enzymes and substrates are diluted in the same buffer (0.01 mM phosphate buffer pH 7.4 containing 0.12M sodium chloride and 0.05% bovine serum albumin in the case of thrombin and 50 mM TRIS-HCl buffer pH 7.4 containing 0.12M sodium chloride, 3 mM calcium chloride and 0.05% bovine serum albumin in the case of activated protein C and plasmin) and then dispensed in a volume of 50 μl onto a polystyrene microplate.

Broadly, the IC50 is the midpoint of a concentration-inhibition curve.

Where a name gives a salt, the structure may show the parent alone.

T1 sequence (P00747 581-810 limits assumed): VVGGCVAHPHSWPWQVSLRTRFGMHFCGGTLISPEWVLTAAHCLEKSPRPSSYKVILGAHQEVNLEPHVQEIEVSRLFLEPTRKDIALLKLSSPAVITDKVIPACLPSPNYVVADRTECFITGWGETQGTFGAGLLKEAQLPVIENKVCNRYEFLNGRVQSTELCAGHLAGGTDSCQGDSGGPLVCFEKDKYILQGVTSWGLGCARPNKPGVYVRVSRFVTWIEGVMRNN
T1 sequence (P00747 97-580 limits assumed): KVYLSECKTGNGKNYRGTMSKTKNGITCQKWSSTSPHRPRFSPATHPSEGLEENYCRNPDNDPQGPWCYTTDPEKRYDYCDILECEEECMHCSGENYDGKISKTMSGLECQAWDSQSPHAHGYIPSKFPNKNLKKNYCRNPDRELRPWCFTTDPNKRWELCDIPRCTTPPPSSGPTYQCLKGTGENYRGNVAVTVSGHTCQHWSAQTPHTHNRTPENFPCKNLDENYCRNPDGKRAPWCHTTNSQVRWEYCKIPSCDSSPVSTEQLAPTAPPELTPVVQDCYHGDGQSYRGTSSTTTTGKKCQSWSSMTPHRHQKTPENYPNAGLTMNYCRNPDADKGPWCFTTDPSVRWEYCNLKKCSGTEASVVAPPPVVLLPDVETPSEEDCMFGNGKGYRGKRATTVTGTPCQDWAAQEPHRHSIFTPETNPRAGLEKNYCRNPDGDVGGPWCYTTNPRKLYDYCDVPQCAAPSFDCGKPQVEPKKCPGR
T2 sequence (P04070 212-461 limits assumed): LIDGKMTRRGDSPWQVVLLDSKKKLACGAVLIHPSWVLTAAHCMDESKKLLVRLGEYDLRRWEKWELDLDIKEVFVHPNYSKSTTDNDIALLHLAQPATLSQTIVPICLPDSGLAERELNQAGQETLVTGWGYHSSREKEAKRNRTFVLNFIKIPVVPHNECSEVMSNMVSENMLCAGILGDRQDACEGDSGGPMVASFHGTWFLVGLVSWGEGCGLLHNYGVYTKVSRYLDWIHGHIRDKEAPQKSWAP
T2 sequence (P04070 43-197 limits assumed): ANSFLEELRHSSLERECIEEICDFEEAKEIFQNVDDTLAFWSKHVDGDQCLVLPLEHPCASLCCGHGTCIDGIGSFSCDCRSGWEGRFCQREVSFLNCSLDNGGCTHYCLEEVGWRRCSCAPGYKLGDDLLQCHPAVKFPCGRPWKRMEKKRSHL
Method for purified human thrombin: as §1

On to `N=C(N)c1ccc(CNC(=O)C2(NC(=O)[C@H](NCC(=O)O)C3CCCCC3)Cc3ccccc3C2)cc1` [Example 1, {[(1R)-2-({2-[({4-Amidinobenzyl}-amino)-carbonyl]-indan-2-yl}-amino)-1-cyclohexyl-2-oxoethyl]-amino}acetic acid hydrochloride], for which the half-maximal inhibitory concentration (IC50) on purified human plasmin is 1100 nM; at purified human thrombin, above 33000 nM; in assay [1] it was 820 nM.

The values above are taken from patent US7265220B2, “Amino acid derivatives, method for production thereof and pharmaceutical compositions comprising said derivative” (Les Laboratories Servier, priority 2002, dated 2007).
